Columns and labels:
Experiment in all cases: In vitro antifungal activity, microbroth dilution MIC
Assay type in all cases: cell-based
Details in all cases: RPMI-1640, 35° C., 4 to 48 hours, no growth observed
[1] = test system: Aspergillus furnigatus B. 19119
Summary of the method: (§1)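 Broth microdilution adapted from NCCLS M27, in RPMI-1640 with 0.165 M MOPS, pH 7.0. Yeast or mould inoculum at 2×10^3 CFU/ml was mixed 1:1 with DMSO-derived compound solutions (200 to 0.10 μg/ml before mixing) and incubated at 35 °C for 4 to 48 h. MIC was the concentration showing no growth.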

[2] = test system: Aspergillus niger A. 16404
Summary of the method: as §1

[3] = test system: Candida albicans A. 10231
Summary of the method: as §1

Candida albicans C1-2 = test system: Candida albicans C1-2
Summary of the method: as §1

[4] = test system: Candida albicans IFO. 1385
Summary of the method: as §1

Candida krusei K. 11655 = test system: Candida krusei K. 11655
Summary of the method: as §1

[5] = test system: Candida parapsitosis A. 7330
Summary of the method: as §1

[6] = test system: Candida pseudotropicalis K. 11658
Summary of the method: as §1

[7] = test system: Candida tropicalis A. 13803
Summary of the method: as §1

[8] = test system: Cryptococcus neoformans A. 34144
Summary of the method: as §1

[9] = test system: Cryptococcus neoformans B. 42419
Summary of the method: as §1

[10] = test system: Cryptococcus neoformans IFM. 40092
Summary of the method: as §1

[11] = test system: Torulopsis glabrata B. 16205
Summary of the method: as §1

[12] = test system: Trichophyton mentagrophytes A. 9129
Summary of the method: as §1

[13] = test system: Trichophyton mentagrophytes B. 32663
Summary of the method: as §1

Row | Compound | Minimal inhibitory concentration(MIC), A furnigatus B. 19119 [1] | Minimal inhibitory concentration(MIC), A. niger A. 16404 [2] | Minimal inhibitory concentration(MIC), C. albicans A. 10231 [3] | Minimal inhibitory concentration(MIC), C. albicans C1-2 (Candida albicans C1-2) | Minimal inhibitory concentration(MIC), C. albicans IFO. 1385 [4] | Minimal inhibitory concentration(MIC), C. krusei K. 11655 (Candida krusei K. 11655) | Minimal inhibitory concentration(MIC), C. parapsitosis A. 7330 [5] | Minimal inhibitory concentration(MIC), C. pseudotropicalis K. 11658 [6] | Minimal inhibitory concentration(MIC), C. tropicalis A. 13803 [7] | Minimal inhibitory concentration(MIC), Cry. neoformans A. 34144 [8] | Minimal inhibitory concentration(MIC), Cry. neoformans B. 42419 [9] | Minimal inhibitory concentration(MIC), Cry. neoformans IFM. 40092 [10] | Minimal inhibitory concentration(MIC), T. glabrata B. 16205 [11] | Minimal inhibitory concentration(MIC), T. mentagrophytes A. 9129 [12] | Minimal inhibitory concentration(MIC), T. mentagrophytes B. 32663 [13]
1 | CCOc1ccc(C(=C(F)OCC2COC(Cn3cncn3)(c3ccc(Cl)cc3Cl)O2)C(F)(F)F)cc1 (mixture of isomers) [Ex. 85] | >100 µg/mL | >100 µg/mL | 100 µg/mL | 100 µg/mL | 25.0 µg/mL | >100 µg/mL | >100 µg/mL | >100 µg/mL | >100 µg/mL | 1.56 µg/mL | 1.56 µg/mL | 0.39 µg/mL | >100 µg/mL | >100 µg/mL | >100 µg/mL
2 | FC(OCC1COC(Cn2cncn2)(c2ccc(Cl)cc2Cl)O1)=C(c1ccc(Cl)cc1)C(F)(F)F (mixture of isomers) [Ex. 86] | >100 µg/mL | >100 µg/mL | 100 µg/mL | 100 µg/mL | 12.5 µg/mL | >100 µg/mL | >100 µg/mL | >100 µg/mL | >100 µg/mL | 1.56 µg/mL | 1.56 µg/mL | 0.78 µg/mL | >100 µg/mL | >100 µg/mL | >100 µg/mL
3 | FC(OCC1COC(Cn2cncn2)(c2ccc(Cl)cc2Cl)O1)=C(c1ccc(F)cc1)C(F)(F)F (mixture of isomers) [Ex. 87] | >100 µg/mL | >100 µg/mL | >100 µg/mL | >100 µg/mL | 6.25 µg/mL | >100 µg/mL | >100 µg/mL | >100 µg/mL | >100 µg/mL | 1.56 µg/mL | 1.56 µg/mL | 0.78 µg/mL | >100 µg/mL | >100 µg/mL | >100 µg/mL
4 | FC(=Cc1ccccc1)Oc1ccc(OCC2COC(Cn3ccnc3)(c3ccc(Cl)cc3Cl)O2)cc1 (mixture of isomers) [Ex. 88] | >100 µg/mL | 100 µg/mL | 100 µg/mL | 100 µg/mL | 6.25 µg/mL | >100 µg/mL | >100 µg/mL | >100 µg/mL | >100 µg/mL | 1.56 µg/mL | 1.56 µg/mL | 0.78 µg/mL | >100 µg/mL | 100 µg/mL | 100 µg/mL
5 | Cc1ccc(C=C(F)Oc2ccc(OCC3COC(Cn4ccnc4)(c4ccc(Cl)cc4Cl)O3)cc2)cc1 (mixture of isomers) [Ex. 89] | 100 µg/mL | >100 µg/mL | 100 µg/mL | 100 µg/mL | 25.0 µg/mL | 12.5 µg/mL | 12.5 µg/mL | 6.25 µg/mL | 100 µg/mL | 3.13 µg/mL | 1.56 µg/mL | 0.78 µg/mL | 50.0 µg/mL | 6.25 µg/mL | 6.25 µg/mL
6 | COc1cccc(C=C(F)Oc2ccc(OCC3COC(Cn4ccnc4)(c4ccc(Cl)cc4Cl)O3)cc2)c1 (mixture of isomers) [Ex. 90] | >100 µg/mL | >100 µg/mL | 100 µg/mL | 100 µg/mL | 12.5 µg/mL | >100 µg/mL | >100 µg/mL | >100 µg/mL | >100 µg/mL | 12.5 µg/mL | 6.25 µg/mL | 0.78 µg/mL | 100 µg/mL | 50.0 µg/mL | 50.0 µg/mL
7 | FC(=Cc1cccc(Cl)c1)Oc1ccc(OCC2COC(Cn3ccnc3)(c3ccc(Cl)cc3Cl)O2)cc1 (mixture of isomers) [Ex. 91] | 100 µg/mL | >100 µg/mL | 100 µg/mL | 100 µg/mL | 6.25 µg/mL | >100 µg/mL | >100 µg/mL | >100 µg/mL | >100 µg/mL | 1.56 µg/mL | 1.56 µg/mL | 0.78 µg/mL | >100 µg/mL | 100 µg/mL | >100 µg/mL
